Values quoted from earlier work in article PMC9540525 (Cancer, 2022).

Legend:
[1] = first-in-human study; cited from earlier work
[2] = phase 1 dose-escalation study in R/R SCLC; cited from earlier work
[3] = phase 1 dose-escalation study in R/R SCLC; cited from earlier work; remark: listed apart in the source

Row | Structure (SMILES) | toxicities [1] | rate of AEs [2] | pharmacokinetic properties [3]
1 | N[C@H]1CC[C@H](N[C@@H]2C[C@H]2c2ccccc2)CC1 [iadademstat] | caused toxicities, including thrombocytopenia, anemia, and febrile neutropenia, as well as deaths possibly related to iadademstat |  | 
2 | O=C(O)c1ccc(CN2CCC(CN[C@@H]3C[C@H]3c3ccccc3)CC2)cc1 [GSK2879552] |  | the rate of AEs, especially serious AEs, was high | favorable pharmacokinetic properties were demonstrated
